Data from patent US20090325954A1, “2-BENZIMIDAZOLYL-6-MORPHOLINO-4-PHENYLPYRIMIDINE DERIVATIVES AS PI3K AND MTOR INHIBITORS FOR THE TREATMENT OF PROLIFERATIVE DISORDERS” (priority 2006, published 2009).

What was measured:
p110α Type Ia human PI3K = target: T1, p110α Type Ia human PI3K (Homo sapiens, UniProt P42336); experiment: In vitro PI3K enzyme assay (AlphaScreen), Test (a); type: biochemical; settings: read-out: IC50 versus p110α Type Ia human PI3K
T1 construct: full length DNA of each of the p110α, p110β and […] Type Ia human PI3K p110 isoforms; 6-His; made in house
Excerpt: The assay used AlphaScreen technology (Gray et al., Analytical Biochemistry, 2003, 313: 234-245) to determine the ability of test compounds to inhibit phosphorylation by recombinant Type I PI3K enzymes of the lipid PI(4,5)P2.
DNA fragments encoding human PI3K catalytic and regulatory subunits were isolated from cDNA libraries using standard molecular biology and PCR cloning techniques. The selected DNA fragments were used to generate baculovirus expression vectors. In particular, full length DNA of each of the p110α, p110β and […] Type Ia human PI3K p110 isoforms (EMBL Accession Nos. HSU79143, S67334, Y10055 for p110a, p110β and p110δ respectively) were sub-cloned into a pDEST10 vector (Invitrogen Limited, Fountain Drive, Paisley, UK). The vector is a Gateway-adapted version of Fastbac1 containing a 6-His epitope tag. […]
Biotinylated-DiC8-PI(3,4,5)P3 (50 nM; Cell Signals Inc., Catalogue No. 107), recombinant purified GST-Grp1 PH protein (2.5 nM) and AlphaScreen Anti-GST donor and acceptor beads (100 ng; Packard Bioscience Limited, Station Road, Pangbourne, Berkshire, UK, Catalogue No. 6760603M) were added and the assay plates were left for about 5 to 20 hours at room temperature in the dark. The resultant signals arising from laser light excitation at […] were read using a Packard AlphaQuest instrument. […]

[1] = tested on: phosphorylation of Serine 473 in Akt; experiment: In vitro phospho-Ser473 Akt assay in MDA-MB-468 cells, Test (c); type: cell-based; settings: Homo sapiens, read-out: IC50, inhibition of phosphorylation of Serine 473 in Akt
Protocol: This assay determines the ability of test compounds to inhibit phosphorylation of Serine 473 in Akt as assessed using Acumen Explorer technology (TTP LabTech Limited, Royston, Herts, SG8 6EE, UK), a plate reader that can be used to rapidly quantitate features of images generated by laser-scanning.
A MDA-MB-468 human breast adenocarcinoma cell line (LGC Promochem, Teddington, Middlesex, UK, Catalogue No. HTB-132) was routinely maintained at 37° C. with 5% CO2 up to a confluency of 70-90% in DMEM containing 10% FCS and 1% L-glutamine.
For the assay, the cells were detached from the culture flask using ‘Accutase’ (Innovative Cell Technologies Inc., San Diego, Calif., USA; Catalogue No. AT104) using standard tissue culture methods and resuspended in media to give 5.5×10^4 cells per ml. Aliquots (90 μl) were seeded into each of the inner 60 wells of a black ‘Costar’ 96-well plate (Corning Inc., NY, USA; Catalogue No. 3904) to give a density of ˜5000 cells per well. Aliquots (90 μl) of culture media were placed in the outer wells to prevent edge effects. [An alternative cell handling procedure involved the maintenance of the cells in a ‘SelecT’ robotic device (The Automation Partnership, Royston, Herts SG8 5WY, UK). Cells were resuspended in media to give 5×10^4 cells per ml. Aliquots (100 μl) were seeded into the wells of a black ‘Costar’ 96-well plate.] […]

T1 sequence (P42336 whole entry, canonical isoform): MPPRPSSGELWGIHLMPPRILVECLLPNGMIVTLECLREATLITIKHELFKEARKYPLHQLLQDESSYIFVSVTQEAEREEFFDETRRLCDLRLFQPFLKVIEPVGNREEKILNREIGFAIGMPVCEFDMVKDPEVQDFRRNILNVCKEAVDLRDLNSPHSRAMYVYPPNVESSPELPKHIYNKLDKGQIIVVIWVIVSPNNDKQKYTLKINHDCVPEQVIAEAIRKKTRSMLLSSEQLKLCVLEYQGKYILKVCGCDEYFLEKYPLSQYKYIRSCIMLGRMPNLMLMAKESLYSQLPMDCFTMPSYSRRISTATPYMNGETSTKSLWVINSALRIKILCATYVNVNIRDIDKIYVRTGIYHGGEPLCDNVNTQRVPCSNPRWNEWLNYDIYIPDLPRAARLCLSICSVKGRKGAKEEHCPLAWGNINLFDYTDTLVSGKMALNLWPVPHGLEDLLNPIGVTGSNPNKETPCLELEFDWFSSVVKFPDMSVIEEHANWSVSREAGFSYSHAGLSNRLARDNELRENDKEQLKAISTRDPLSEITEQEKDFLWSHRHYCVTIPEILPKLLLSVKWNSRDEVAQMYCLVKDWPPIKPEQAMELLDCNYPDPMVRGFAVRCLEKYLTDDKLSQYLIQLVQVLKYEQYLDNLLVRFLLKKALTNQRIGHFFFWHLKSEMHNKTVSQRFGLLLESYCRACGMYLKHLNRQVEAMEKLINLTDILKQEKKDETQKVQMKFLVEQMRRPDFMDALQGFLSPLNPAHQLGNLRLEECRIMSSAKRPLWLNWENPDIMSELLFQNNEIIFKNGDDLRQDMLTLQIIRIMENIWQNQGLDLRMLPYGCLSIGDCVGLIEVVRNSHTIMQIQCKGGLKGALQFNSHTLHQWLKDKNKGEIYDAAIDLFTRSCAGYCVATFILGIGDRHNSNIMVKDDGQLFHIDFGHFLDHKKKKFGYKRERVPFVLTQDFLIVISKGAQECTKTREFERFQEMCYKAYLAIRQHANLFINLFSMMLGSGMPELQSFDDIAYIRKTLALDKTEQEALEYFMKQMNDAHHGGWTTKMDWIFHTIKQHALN
T1 sequence (P27986 whole entry partner, canonical isoform): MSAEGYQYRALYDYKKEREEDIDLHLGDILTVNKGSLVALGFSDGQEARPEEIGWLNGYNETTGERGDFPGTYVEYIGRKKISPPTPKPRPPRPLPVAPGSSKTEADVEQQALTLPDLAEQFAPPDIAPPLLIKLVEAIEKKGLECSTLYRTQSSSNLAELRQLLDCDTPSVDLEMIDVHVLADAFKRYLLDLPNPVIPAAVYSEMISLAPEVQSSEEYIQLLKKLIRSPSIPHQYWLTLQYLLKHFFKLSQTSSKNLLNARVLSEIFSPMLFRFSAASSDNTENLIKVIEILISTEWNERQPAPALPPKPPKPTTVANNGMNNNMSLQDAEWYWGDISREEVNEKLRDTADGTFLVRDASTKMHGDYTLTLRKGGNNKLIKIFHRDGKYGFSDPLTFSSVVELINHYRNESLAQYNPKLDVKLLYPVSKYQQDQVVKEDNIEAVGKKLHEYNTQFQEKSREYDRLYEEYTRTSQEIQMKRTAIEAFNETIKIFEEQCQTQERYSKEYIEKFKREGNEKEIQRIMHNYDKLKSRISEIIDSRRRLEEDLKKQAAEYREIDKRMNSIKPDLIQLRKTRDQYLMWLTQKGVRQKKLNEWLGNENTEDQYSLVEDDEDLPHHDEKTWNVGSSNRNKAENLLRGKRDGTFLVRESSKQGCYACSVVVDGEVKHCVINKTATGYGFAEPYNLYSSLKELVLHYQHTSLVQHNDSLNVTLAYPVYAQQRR

Structure (SMILES) | IC50 (p110α Type Ia human PI3K) [nM] | IC50 [1] [nM]
CN(C)CCNC(=O)c1ccc(-c2cc(N3CCOCC3)nc(-n3c(C(F)F)nc4ccccc43)n2)cc1 [Example 9, 2-(2-difluoromethylbenzimidazol-1-yl)-4-{4-[N-(2-dimethylaminoethyl)carbamoyl]phenyl}-6-morpholinopyrimidine] | ~300 | ~100
CNCC(=O)Nc1ccc(-c2cc(N3CCOCC3)nc(-n3c(C(F)F)nc4ccccc43)n2)cc1 [Example 5, 2-(2-difluoromethylbenzimidazol-1-yl)-6-morpholino-4-(4-sarcosylaminophenyl)pyrimidine] | ~300 | ~20
